Results: patent publication US20100317734A1, “FREE FATTY ACID BLENDS AND USE THEREOF” (priority 2007, published 2010)

System: Staphylococcus aureus
Experiment: Contact viability assay, 2 minutes exposure
Format: cell-based
Details: on its own
Protocol: The assay was conducted in glass tubes and all test components were equilibrated at the teat temperature in a water bath before inoculation and during the suspension period (2 minutes). The inoculum is an 18 hour culture of Staphylococcus aureus grown in Brain Heart Infusion Broth. The reduction in CFU's are illustrated in FIG. 4. FIG. 7 illustrates the antimicrobial effect of emulsions of caprylic:oleic, capric:oleic and lauric:oleic with varying concentration in oleic acid. The emulsions were prepared by method 2 in Example 3.

CCCCCCCC/C=C\CCCCCCCC(=O)O [oleic acid]
antimicrobial effect: no significant antimicrobial effect
